Test results: ChEMBL document CHEMBL6083188, “Recent contributions of pyridazine as a privileged scaffold of anticancer agents in medicinal chemistry: An updated review” (Bioorg Med Chem, 2024)
Values after ≈ are worked out from the molar mass of the structure shown.

Experiments:
[1] = system: HCT-116; assay: Cytotoxicity against human HCT-116 cells assessed as reduction in cell viability incubated for 72 hrs by MTT assay; type: functional, cell-based; conditions: HCT-116, 72 h
[2] = system: MGC-803; assay: Antitumor activity against human MGC-803 cells xenografted in nude mouse assessed as tumor inhibition at 20 mg/kg, ip administered once every two days for 21 days relative to control; type: functional; parameters: scale not given: the % may be the effect or the level left; conditions: time 21 day
[3] = system: PC-3; assay: cells; conditions: Homo sapiens, PC-3, 72 h
Description: Cytotoxicity against human PC-3 cells assessed as inhibition of cell growth incubated for 72 hrs by MTT assay

[4] = system: SNB-75; assay: Antiproliferative activity against human SNB-75 cells assessed as reduction in cell growth incubated for 48 hrs by SRB assay; type: functional, cell-based; conditions: SNB-75, 48 h
[5] = biological target: Phosphatidylinositol 4,5-bisphosphate 3-kinase catalytic subunit alpha isoform (Homo sapiens, UniProt P42336); assay: Inhibition of PI3Kalpha (unknown origin)
Chain of Phosphatidylinositol 4,5-bisphosphate 3-kinase catalytic subunit alpha isoform (P42336 whole entry, canonical isoform): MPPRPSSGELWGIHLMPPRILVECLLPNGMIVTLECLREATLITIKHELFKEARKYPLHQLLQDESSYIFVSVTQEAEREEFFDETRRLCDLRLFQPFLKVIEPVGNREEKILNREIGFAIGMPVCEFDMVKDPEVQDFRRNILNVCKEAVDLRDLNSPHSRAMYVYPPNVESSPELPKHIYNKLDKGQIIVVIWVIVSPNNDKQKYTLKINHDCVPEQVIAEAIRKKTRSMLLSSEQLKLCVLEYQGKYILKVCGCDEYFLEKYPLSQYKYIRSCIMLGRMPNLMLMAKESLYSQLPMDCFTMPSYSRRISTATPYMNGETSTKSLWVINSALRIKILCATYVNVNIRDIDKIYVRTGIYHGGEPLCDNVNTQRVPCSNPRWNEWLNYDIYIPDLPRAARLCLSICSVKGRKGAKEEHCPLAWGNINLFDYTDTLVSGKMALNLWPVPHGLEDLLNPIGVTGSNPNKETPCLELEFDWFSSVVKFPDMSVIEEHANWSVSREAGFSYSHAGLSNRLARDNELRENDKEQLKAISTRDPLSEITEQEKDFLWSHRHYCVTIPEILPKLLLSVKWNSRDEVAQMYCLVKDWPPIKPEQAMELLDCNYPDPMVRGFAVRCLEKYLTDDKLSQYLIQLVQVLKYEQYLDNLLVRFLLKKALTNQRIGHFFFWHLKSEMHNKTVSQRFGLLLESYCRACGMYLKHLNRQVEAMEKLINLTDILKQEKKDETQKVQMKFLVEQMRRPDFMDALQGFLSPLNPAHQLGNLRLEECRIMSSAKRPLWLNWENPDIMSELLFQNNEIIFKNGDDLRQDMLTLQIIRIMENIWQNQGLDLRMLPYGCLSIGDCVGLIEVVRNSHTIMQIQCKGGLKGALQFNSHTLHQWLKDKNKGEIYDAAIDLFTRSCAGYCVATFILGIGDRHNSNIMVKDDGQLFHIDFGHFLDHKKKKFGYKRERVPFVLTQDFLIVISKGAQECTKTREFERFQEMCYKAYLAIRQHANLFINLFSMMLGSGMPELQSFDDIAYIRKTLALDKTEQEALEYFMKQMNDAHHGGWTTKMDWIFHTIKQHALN

[6] = biological target: Phosphatidylinositol 4,5-bisphosphate 3-kinase catalytic subunit beta isoform (Homo sapiens, UniProt P42338); assay: Inhibition of PI3Kbeta (unknown origin)
Chain of Phosphatidylinositol 4,5-bisphosphate 3-kinase catalytic subunit beta isoform (P42338 whole entry, canonical isoform): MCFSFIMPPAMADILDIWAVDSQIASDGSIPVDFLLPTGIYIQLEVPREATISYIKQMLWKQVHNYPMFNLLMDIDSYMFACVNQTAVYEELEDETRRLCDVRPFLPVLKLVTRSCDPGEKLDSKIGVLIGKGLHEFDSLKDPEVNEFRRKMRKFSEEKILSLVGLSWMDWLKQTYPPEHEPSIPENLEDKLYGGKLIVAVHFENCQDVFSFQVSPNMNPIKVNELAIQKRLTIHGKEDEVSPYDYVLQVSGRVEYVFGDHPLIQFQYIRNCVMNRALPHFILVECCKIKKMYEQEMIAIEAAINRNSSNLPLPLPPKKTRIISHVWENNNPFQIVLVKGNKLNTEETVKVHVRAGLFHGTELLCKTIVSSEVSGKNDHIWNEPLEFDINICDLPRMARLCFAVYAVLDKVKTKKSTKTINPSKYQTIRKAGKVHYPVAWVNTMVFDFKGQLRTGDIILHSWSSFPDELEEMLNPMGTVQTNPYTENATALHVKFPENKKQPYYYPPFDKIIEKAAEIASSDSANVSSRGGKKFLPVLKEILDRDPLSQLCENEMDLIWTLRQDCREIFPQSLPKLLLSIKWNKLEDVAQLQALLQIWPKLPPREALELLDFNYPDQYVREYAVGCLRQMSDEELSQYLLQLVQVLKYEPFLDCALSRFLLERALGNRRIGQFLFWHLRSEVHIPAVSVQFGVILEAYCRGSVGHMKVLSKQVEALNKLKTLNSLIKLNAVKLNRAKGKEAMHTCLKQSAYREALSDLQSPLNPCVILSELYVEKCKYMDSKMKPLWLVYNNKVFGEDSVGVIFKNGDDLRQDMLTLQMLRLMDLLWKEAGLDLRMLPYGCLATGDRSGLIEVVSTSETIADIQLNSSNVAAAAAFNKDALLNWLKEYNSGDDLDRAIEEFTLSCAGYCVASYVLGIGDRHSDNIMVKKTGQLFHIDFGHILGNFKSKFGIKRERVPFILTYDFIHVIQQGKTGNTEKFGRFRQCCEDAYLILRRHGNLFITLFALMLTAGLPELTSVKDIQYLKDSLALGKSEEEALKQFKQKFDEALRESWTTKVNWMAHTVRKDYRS

[7] = biological target: Phosphatidylinositol 4,5-bisphosphate 3-kinase catalytic subunit gamma isoform (Homo sapiens, UniProt P48736); assay: Inhibition of PI3Kgamma (unknown origin)
Chain of Phosphatidylinositol 4,5-bisphosphate 3-kinase catalytic subunit gamma isoform (P48736 whole entry, canonical isoform): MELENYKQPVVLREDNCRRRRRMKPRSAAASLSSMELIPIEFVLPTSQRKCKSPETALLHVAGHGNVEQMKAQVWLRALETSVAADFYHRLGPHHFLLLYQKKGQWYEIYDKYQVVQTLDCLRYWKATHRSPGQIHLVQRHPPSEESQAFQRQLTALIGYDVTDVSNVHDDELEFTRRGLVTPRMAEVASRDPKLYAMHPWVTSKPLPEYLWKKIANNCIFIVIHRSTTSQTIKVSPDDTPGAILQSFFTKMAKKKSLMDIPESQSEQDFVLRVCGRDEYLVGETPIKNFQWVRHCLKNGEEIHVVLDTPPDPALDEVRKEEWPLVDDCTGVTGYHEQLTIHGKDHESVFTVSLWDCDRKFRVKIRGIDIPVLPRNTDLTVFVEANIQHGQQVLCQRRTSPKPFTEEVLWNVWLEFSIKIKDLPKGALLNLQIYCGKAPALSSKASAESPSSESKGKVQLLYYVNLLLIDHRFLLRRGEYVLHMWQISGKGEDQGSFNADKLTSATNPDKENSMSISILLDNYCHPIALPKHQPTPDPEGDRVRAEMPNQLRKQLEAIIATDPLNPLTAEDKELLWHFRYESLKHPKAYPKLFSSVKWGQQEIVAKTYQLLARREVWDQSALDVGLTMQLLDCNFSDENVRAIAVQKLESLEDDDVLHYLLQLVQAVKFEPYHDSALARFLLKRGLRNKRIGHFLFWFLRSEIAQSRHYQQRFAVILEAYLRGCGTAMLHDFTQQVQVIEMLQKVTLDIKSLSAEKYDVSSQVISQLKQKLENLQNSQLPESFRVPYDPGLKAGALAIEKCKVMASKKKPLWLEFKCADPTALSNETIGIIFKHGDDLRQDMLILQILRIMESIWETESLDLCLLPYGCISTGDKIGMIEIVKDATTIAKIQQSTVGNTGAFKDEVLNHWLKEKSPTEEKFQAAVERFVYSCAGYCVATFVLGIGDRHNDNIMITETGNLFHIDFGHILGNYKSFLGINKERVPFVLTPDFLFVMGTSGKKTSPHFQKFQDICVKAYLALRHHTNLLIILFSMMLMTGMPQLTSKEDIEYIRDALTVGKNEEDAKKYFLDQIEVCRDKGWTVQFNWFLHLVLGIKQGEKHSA

[8] = biological target: T1, Phosphatidylinositol 4,5-bisphosphate 3-kinase catalytic subunit delta isoform (Homo sapiens, UniProt O00329); assay: Inhibition of PI3Kdelta (unknown origin)
T1 sequence (O00329 whole entry): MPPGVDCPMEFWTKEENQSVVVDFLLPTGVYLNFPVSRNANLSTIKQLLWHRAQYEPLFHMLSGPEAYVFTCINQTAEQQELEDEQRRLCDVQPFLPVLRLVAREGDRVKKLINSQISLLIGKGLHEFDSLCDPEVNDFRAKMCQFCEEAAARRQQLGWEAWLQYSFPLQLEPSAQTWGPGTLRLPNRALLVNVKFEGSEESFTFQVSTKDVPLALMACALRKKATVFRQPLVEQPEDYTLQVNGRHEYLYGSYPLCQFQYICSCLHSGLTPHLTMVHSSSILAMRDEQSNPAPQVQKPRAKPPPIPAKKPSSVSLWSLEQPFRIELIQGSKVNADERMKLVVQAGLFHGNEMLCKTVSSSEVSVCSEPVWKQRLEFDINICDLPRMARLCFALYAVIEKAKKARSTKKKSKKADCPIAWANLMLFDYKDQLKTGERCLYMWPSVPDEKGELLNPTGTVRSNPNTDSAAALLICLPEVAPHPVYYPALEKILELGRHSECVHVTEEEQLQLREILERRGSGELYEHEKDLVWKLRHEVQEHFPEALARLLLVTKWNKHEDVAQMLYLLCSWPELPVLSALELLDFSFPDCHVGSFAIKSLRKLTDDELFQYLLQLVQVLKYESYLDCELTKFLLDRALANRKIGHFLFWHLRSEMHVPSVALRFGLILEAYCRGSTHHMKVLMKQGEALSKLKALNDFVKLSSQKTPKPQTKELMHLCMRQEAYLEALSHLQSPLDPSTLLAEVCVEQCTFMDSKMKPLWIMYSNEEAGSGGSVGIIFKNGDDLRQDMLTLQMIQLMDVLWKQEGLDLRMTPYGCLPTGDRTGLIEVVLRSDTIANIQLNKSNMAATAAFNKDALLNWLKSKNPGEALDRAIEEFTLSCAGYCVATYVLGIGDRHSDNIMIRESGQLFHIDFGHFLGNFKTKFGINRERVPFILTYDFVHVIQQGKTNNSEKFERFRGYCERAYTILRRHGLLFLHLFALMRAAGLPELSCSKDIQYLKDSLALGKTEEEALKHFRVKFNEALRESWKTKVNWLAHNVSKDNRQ

[9] = biological target: Epidermal growth factor receptor (Homo sapiens, UniProt P00533); assay: Inhibition of EGFR (unknown origin) extracted from insect cells by ELISA method; type: cell-free, Insect cell
[10] = system: MDA-MB-231; assay: cells; conditions: Homo sapiens
Description: Antiproliferative activity against human MDA-MB-231 cells assessed as reduction in cell viability

[11] = system: T47D; assay: cells; conditions: Homo sapiens
Description: Antiproliferative activity against human T47D cells assessed as reduction in cell viability

[12] = system: MCF7; assay: Cytotoxicity against human MCF7 cells assessed as reduction in cell viability measured for 48 hrs by MTT assay; type: functional, cell-based; conditions: MCF7, 48 h
[13] = system: HCT-116; assay: Cytotoxicity against human HCT-116 cells assessed as reduction in cell viability measured for 48 hrs by MTT assay; type: functional, cell-based; conditions: HCT-116, 48 h
[14] = system: HepG2; assay: Cytotoxicity against human HepG2 cells assessed as reduction in cell viability measured for 48 hrs by MTT assay; type: functional, cell-based; conditions: HepG2, 48 h
[15] = system: PC-3; assay: Cytotoxicity against human PC-3 cells assessed as reduction in cell viability measured for 48 hrs by MTT assay; type: functional, cell-based; conditions: PC-3, 48 h
[16] = Antiproliferative activity against mouse Ba/F3 EML4-ALK cells assessed as inhibition of cell growth; type: functional, cell-based
[17] = Antiproliferative activity against mouse Ba/F3 EML4-ALK-G1202R-L1196M cells assessed as inhibition of cell growth; type: functional, cell-based
[18] = biological target: Hepatocyte growth factor receptor (Homo sapiens, UniProt P08581); assay: Inhibition of c-Met (unknown origin)
Chain of Hepatocyte growth factor receptor (P08581 whole entry): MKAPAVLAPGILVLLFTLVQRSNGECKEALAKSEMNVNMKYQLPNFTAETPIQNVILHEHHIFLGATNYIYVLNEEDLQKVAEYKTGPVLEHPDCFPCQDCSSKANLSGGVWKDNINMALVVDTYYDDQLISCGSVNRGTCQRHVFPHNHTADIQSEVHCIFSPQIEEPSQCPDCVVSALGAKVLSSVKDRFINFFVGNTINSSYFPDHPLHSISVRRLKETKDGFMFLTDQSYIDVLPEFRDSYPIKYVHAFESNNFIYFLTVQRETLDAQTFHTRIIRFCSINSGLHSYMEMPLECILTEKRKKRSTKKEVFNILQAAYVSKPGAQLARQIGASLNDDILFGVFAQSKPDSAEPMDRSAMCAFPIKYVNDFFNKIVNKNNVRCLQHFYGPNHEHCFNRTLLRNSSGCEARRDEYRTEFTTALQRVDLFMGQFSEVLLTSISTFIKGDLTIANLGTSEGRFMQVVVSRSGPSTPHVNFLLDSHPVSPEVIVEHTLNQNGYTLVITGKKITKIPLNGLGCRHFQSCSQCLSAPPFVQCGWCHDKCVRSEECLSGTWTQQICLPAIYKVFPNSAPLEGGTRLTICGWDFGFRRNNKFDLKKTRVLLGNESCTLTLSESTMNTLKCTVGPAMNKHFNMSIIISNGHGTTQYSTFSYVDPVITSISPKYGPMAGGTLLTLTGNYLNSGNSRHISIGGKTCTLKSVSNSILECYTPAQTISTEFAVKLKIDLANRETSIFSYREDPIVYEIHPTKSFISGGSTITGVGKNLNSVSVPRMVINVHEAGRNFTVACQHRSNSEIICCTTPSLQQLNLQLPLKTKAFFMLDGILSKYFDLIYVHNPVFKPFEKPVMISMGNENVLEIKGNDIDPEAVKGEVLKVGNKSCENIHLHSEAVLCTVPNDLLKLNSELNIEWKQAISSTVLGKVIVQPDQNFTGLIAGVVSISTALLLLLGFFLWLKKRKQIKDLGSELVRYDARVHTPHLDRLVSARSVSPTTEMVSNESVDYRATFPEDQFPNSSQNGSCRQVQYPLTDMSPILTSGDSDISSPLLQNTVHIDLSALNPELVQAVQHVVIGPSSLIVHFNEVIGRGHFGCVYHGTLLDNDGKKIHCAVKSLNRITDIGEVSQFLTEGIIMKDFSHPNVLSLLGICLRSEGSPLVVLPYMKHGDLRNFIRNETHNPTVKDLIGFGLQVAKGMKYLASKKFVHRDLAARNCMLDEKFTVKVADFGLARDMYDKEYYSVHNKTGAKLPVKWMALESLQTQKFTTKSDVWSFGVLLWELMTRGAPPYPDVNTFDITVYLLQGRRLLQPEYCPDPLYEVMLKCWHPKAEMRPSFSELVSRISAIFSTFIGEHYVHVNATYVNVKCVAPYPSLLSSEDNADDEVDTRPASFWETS

[19] = system: A549; assay: Cytotoxicity against human A549 cells assessed as reduction in cell growth incubated for 5 days by MTT assay; type: functional, cell-based; conditions: A549, 120 h
[20] = system: MCF7; assay: Cytotoxicity against human MCF7 cells assessed as reduction in cell growth incubated for 5 days by MTT assay; type: functional, cell-based; conditions: MCF7, 120 h
[21] = system: HeLa; assay: Cytotoxicity against human HeLa cells assessed as reduction in cell growth incubated for 5 days by MTT assay; type: functional, cell-based; conditions: 120 h
[22] = biological target: Aurora kinase B (Homo sapiens, UniProt Q96GD4); assay: Inhibition of Aurora B (unknown origin)
Chain of Aurora kinase B (Q96GD4 whole entry): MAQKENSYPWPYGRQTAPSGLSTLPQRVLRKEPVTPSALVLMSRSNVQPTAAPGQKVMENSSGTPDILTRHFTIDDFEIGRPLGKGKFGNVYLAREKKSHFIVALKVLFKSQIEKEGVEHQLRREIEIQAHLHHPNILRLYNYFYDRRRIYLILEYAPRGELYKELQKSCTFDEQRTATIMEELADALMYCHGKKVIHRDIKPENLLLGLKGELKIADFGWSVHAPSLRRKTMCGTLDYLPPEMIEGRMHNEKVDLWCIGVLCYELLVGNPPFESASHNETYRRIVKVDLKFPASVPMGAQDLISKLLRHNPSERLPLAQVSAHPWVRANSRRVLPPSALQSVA

COC(=O)C(CC(C)(C)C)NC(=O)CNC(=O)COc1nn(-c2ccccc2)c(=O)c2ccccc12 (stereo not drawn)
IC50 [1]: 1360 nM

CCN(CC)CCNc1cc(-c2ccc(Br)cc2)nn2c(=O)c3ccccc3nc12
Activity [2]: 55.9%

CNC(=O)c1cc(Oc2ccc(NC(=O)Nc3ccc(Cl)c(C(F)(F)F)c3)cc2)ccn1 [SORAFENIB]
IC50 [3]: 11500 nM

CCOC(=O)c1nn(-c2ccccc2)c(=O)c2c(N)c(C#N)c(-c3cccs3)cc12
IC50 [4]: 3.7 µg/mL (≈ 8.88 µM) | IC50 [5]: 4390 nM | IC50 [6]: 13600 nM | IC50 [7]: 12500 nM | IC50 [8]: 3110 nM

COc1cccc(C2=NN(c3ccc(-c4ccccc4)nn3)C(c3ccc(F)c(OC)c3)C2)c1 (stereo not drawn)
IC50 [9]: 650 nM

O=C(NCC1CCOCC1)c1cc(C(F)(F)F)c(N2CCOCC2)nn1
IC50 [10]: 900 nM | IC50 [11]: 430 nM

Oc1ccc(/C=N/Nc2nn3c(C(F)(F)F)nnc3c3ccccc23)cc1
IC50 [12]: 8040 nM | IC50 [13]: 5700 nM | IC50 [14]: 11200 nM | IC50 [15]: 4250 nM

C[C@H]1CNC(=O)c2cnn3ccc(nc23)N[C@H](C)c2cc(F)ccc2O1 [REPOTRECTINIB]
IC50 [16]: 164 nM | IC50 [17]: 208 nM

Cc1cc(Oc2ccc(NC(=O)c3sc(-c4ccccn4)nc3C)cc2)c2nncn2n1
IC50 [18]: 90 nM | IC50 [19]: 1060 nM | IC50 [20]: 1200 nM | IC50 [21]: 2730 nM

c1cc2[nH]ncc2cc1-c1cnc2ccc(OC[C@H]3CNCCO3)nn12
IC50 [22]: 6 nM

O=C1CCC(c2ccc(NC(=S)Nc3ccccc3)cc2)=NN1c1ccccc1
IC50 [3]: 7830 nM
